Key:
Type in all cases: cell-based, human
[1] = tested on: peripheral blood mononuclear cells (PBMC) with allogeneic PBMC or RPMI1788 stimulator cells; assay: Mixed lymphocyte reaction (MLR) test, [3H]-thymidine incorporation; conditions: Table 1; 5 days incubation + 16 h thymidine
Description: (§1) Various models may be used for testing an immunosuppressive effect. In vivo, for example, different transplantation models are available. They are strongly influenced by different immunogenicities, depending on the donor and recipient species used and depending on the nature of the transplanted organ. The survival time of transplanted organs can thus be used to measure the suppression of the immune response. In vitro, the most used models are lymphocyte activation tests. Usually activation is measured via lymphocyte proliferation. Inhibition of proliferation thus always means immunosuppression under the experimental conditions applied. There exist different stimuli for lymphocyte activation: • a) co-culture of lymphocytes of […] (mixed lymphocyte reaction, hereinafter referred as MLR) in a so-called mixed lymphocyte culture test: lymphocytes expressing different minor and major antigens of the HLA-DR type (=alloantigens) activate each other non-specifically. • b) a CD3 assay here there is an activation of the T-lymphocytes via an exogenously added antibody (OKT3).
(§2) All reagents were dissolved in 0.5 ml dimethylsulfoxide (hereinafter referred as DMSO) and further diluted in culture medium before use for the following in vitro experiments. The commercially available culture medium consisted of RPMI-1640+10% foetal calf serum (FCS).
Peripheral blood mononuclear cells (hereinafter referred as PBMC) were isolated from heparinized peripheral blood by density gradient centrifugation over Lymphoprep (Nycomed, Maorstua, Norway). Allogeneic PBMC or Eppstein-Barr Virus-transformed human B cells [commercially available under the trade name RPM11788 (ATCC name CCL156)] which strongly express B7-1 and B7-2 antigens were used as stimulator cells after irradiation with 30 Gy. MLR was performed in triplicate wells. After 5 days incubation at 37° C., 1 μCi [^3 H]-thymidine was added to each cup. After a further 16 hours incubation, cells were harvested and counted in a β-counter. Inhibition of proliferation by a compound (drug) described in some of the previous examples was counted using the formula: [formula] wherein cpm is the thymidine count per minute. Assays for CD3 and CD 28

[2] = tested on: highly purified T cells stimulated by immobilized anti-CD3 mAb; assay: CD3 assay: T-cell proliferation stimulated by anti-CD3 mAb + PMA (BrdU); conditions: Table 1; anti-CD3 mAb + PMA 0.5 ng/ml, 48 h; read-out: CD 3 IC50
Description: as §1, §2
(§3) T cells were purified by removing non-T cells. Briefly, monocytes were removed by cold agglutination. The resulting lymphoid cells were further purified by a cell enrichment immunocolumn [Cellect Human T commercially available from Biotex, Edmonton, Alberta, Canada)] by a process of negative selection.
(§4) Highly purified T cells (10^6/ml) were stimulated by immobilized anti-CD3 or anti-CD28 monoclonal antibodies (hereinafter referred as mAb) in the presence of PMA. Anti-CD3 mAb (available from CLB, Amsterdam, Netherlands) were fixed on the 96-microwell plates by incubating the wells with 50 μl of mAb solution (1/800 dilution in culture medium). For anti-CD28 mAb (available from CLB, Amsterdam, Netherlands) 50 μl (1/650 dilution in culture medium) was added directly to the wells. Further, a 20 μl phorbol myristate acetate (hereinafter referred as PMA (commercially available from Sigma, St. Louis, Mo., USA) solution (final concentration: 0.5 ng/ml) was added. Subsequently, 20 μl of a compound described in some of the previous examples were added by serial dilution in triplicate wells. Finally 100 μl of the T-cell suspension (10^6/ml) was added. After 48-hour incubation at 37° C. in 5% CO2 20 μl of a bromo-deuridine (hereinafter referred as BrdU) 100 μM solution (commercially available as Cell Proliferation Elisa from Boehringer-Mannheim Belgium) was added to each well. After a further overnight incubation, T-cell proliferation was measured using a colorimetric immunoassay for qualification of cell proliferation based on the incorporation of BrdU during DNA synthesis. Optical density (hereinafter referred as OD) was measured by a Behring EL311 plate reader at 450 nm (reference wavelength: 690 nm). Inhibition of proliferation by a compound (drug) described in some of the previous examples was counted using the formula: [formula]

[3] = tested on: highly purified T cells stimulated by anti-CD28 mAb; assay: CD28 assay: T-cell proliferation stimulated by anti-CD28 mAb + PMA (BrdU); conditions: Table 1; anti-CD28 mAb + PMA 0.5 ng/ml, 48 h
Description: as §1, §2, §3, §4

Row | SMILES | IC50 [1] [µM] | IC50 [2] [µM] | IC50 [3] [µM]
1 | Cn1c(=O)c2nc(C#N)c(-n3ccnc3)nc2n(C)c1=O [Example 57, 6-cyano-7-imidazolyl-1,3-dimethyl-lumazine] | 48 | 16.8 | 15
2 | Cn1c(=O)c2ncc(/C=C/c3cccnc3)nc2n(C)c1=O [Example 21, 1,3-dimethyl-7-[(E)-2-(pyrid-3-yl)vinyl]lumazine] | 20 | 100 | 60
3 | Cc1nc2c(nc1N1CCCC1)c(=O)n(C)c(=O)n2C [Example 74, 6-pyrrolidinyl-1,3,7-trimethyl-lumazine] | 140 | 92 | 128
4 | Cn1c(=O)c2nc(C=Cc3ccc(OC(F)(F)F)cc3)cnc2n(C)c1=O [Example 80, 6-[2-(p-trifluoromethoxyphenyl)ethenyl]-1,3-dimethyllumazine] | 9 |  | 
5 | CC(C)Nc1nc2c(nc1C=O)c(=O)n(C)c(=O)n2C [Example 66, 6-formyl-7-isopropylamino-1,3-dimethyl-lumazine] | 92 | 68 | 92
6 | Cn1c(=O)c2nc(O)c(C=O)nc2n(C)c1=O [Example 46, 6-hydroxy-7-formyl-1,3-dimethyl-lumazine] | 72 | 104 | 80
7 | CCOc1nc2c(nc1-c1ccccc1)c(=O)n(C)c(=O)n2C [Example 33, 7-ethoxy-1,3-dimethyl-6-phenyllumazine] | 40 | 100 | 70
8 | Cn1c(=O)c2nc(C=O)c(N3CCCCCC3)nc2n(C)c1=O [Example 68, 6-formyl-7-(1-azacycloheptyl)-1,3-dimethyl-lumazine] | 80 | 80 | 116
9 | CCOC(=O)c1nc2c(=O)n(C)c(=O)n(C)c2nc1NCC(C)(C)C [Example 61, 6-ethylcarboxylate-7-neopentylamino-1,3-dimethyl-lumazine] | 16 | 80 | 16
10 | CCOC(=O)CSc1nc2c(nc1C(Cl)Cl)c(=O)n(C)c(=O)n2C [Example 72, 6-dichloromethyl-7-ethylmercaptoacetate-1,3-dimethyl-lumazine] | 116 | > 20 | 19
11 | Cn1c(=O)c2nc(C=Cc3ccc(C(F)(F)F)cc3)cnc2n(C)c1=O [Example 77, 6-[2-(p-trifluoromethylphenyl)ethenyl]-1,3-dimethyllumazine] | 17 | > 200 | 140
12 | CCCCNc1nc2c(nc1C(=O)OCC)c(=O)n(C)c(=O)n2C [Example 60, 6-ethylcarboxylate-7-n-butylamino-1,3-dimethyl-lumazine] | 13 | 56 | 92
13 | COc1nc2c(nc1C=Cc1ccccc1)c(=O)n(C)c(=O)n2C [Example 40, 7-methoxy-1,3-dimethyl-6-styryllumazine] | 20 | > 200 | > 200
14 | COC(=O)C(Br)C(Br)c1cnc2c(=O)n(C)c(=O)n(C)c2n1 (stereo not drawn) [Example 25, 7-[1,2-dibromo-2-(methoxycarbonyl)ethyl)-1,3-dimethyllumazine] | 1.9 |  | 
15 | Cn1c(=O)c2nc(C=O)c(NCCO)nc2n(C)c1=O [Example 67, 6-formyl-7-hydroxyethylamino-1,3-dimethyl-lumazine] | 104 | 104 | 104
16 | C=CCNc1nc2c(nc1C(=O)OCC)c(=O)n(C)c(=O)n2C [Example 62, 6-ethylcarboxylate-7-(2-propenylamino)-1,3-dimethyl-lumazine] | 60 | 92 | 56
17 | Cn1c(=O)c2nc(C3OCCO3)c(Cl)nc2n(C)c1=O [Example 49, 6-(1,3-dioxolanyl)-7-chloro-1,3-dimethyl-lumazine] | 11 | 2.2 | 3.6

Row | SMILES | IC50 [1] [µM] | IC50 [2] [µM] | IC50 [3] [µM]
18 | Cn1c(=O)c2nc(C(Br)C(Br)c3ccccc3)cnc2n(C)c1=O (stereo not drawn) [Example 8, 6-(1,2-dibromo-2-phenylethyl)-1,3-dimethyllumazine] | 15 |  | 1.55
19 | CCOC(=O)c1nc2c(=O)n(C)c(=O)n(C)c2nc1SCC [Example 65, 6-ethylcarboxylate-7-mercaptoethyl-1,3-dimethyl-lumazine] | 140 | 116 | 116
20 | Cn1c(=O)c2nc(-c3ccccc3)c(Cl)nc2n(C)c1=O [Example 34, 7-chloro-1,3-dimethyl-6-phenyllumazine] | 3.75 | 0.08 | 0.07
21 | Cn1c(=O)c2nc(C=O)c(N3CCSCC3)nc2n(C)c1=O [Example 69, 6-formyl-7-thiomorpholino-1,3-dimethyl-lumazine] | 116 | 80 | 116
22 | Cn1c(=O)c2nc(C=Cc3ccccc3)cnc2n(C)c1=O [Example 79, 6-[2-phenylethenyl]-1,3-dimethyllumazine] | 17 | 104 | > 200
23 | Cn1c(=O)c2ncc(/C=C/c3ccccc3)nc2n(C)c1=O [Example 26, 1,3-dimethyl-7-(E)-styryllumazine] | 50 | 115 | 115
24 | COC(=O)C(Br)C(Br)c1cnc2c(n1)c(=O)n(C)c(=O)n2C (stereo not drawn) [Example 11, 6-(1,2-dibromo-2-(methoxycarbonyl)ethyl)-1,3-dimethyllumazine] | 12 | 0.55 | 0.08
25 | CCOC(=O)c1nc2c(=O)n(C)c(=O)n(C)c2nc1NNc1ccccc1 [Example 64, 6-ethylcarboxylate-7-phenylhydrazino-1,3-dimethyl-lumazine] | 20 | 56 | 12
26 | CCOC(=O)c1nc2c(=O)n(C)c(=O)n(C)c2nc1N1CCCCC1 [Example 63, 6-ethylcarboxylate-7-piperidinyl-1,3-dimethyl-lumazine] | 104 | 128 | 80
27 | Cn1c(=O)[nH]c(=O)c2nc(-c3ccccc3)c(-c3ccccc3)nc21 [Example 41, 1-methyl-6,7-diphenyllumazine] | 35 | 25 | 25
28 | Cn1c(=O)c2ncc(Cl)nc2n(C)c1=O [Example 31, 7-chloro-1,3-dimethyllumazine] | 12 |  | 0.1
29 | CCOC(=O)c1nc2c(=O)n(C)c(=O)n(C)c2nc1Cl [Example 48, 6-ethylcarboxylate-7-chloro-1,3-dimethyl-lumazine] | 12.5 |  | 
30 | Cn1c(=O)c2nc(-c3ccccc3)c(S)nc2n(C)c1=O [Example 32, 1,3-dimethyl-6-phenyl-7-mercaptolumazine] | 25 | 25 | 25
31 | COC(=O)C(Br)=Cc1cnc2c(n1)c(=O)n(C)c(=O)n2C [Example 12, 6-(2-bromo-2-methoxycarbonyl-ethenyl)-1,3-dimethyllumazine] |  | 0.58 | 0.08
32 | Cn1c(=O)c2ncc(C(Br)C(Br)c3ccccc3)nc2n(C)c1=O (stereo not drawn) [Example 27, 7-(1,2-dibromo-2-phenylethyl)-1,3-dimethyllumazine] | 12 |  | 0.1
33 | CCOC(=O)CSc1nc2c(nc1C#N)c(=O)n(C)c(=O)n2C [Example 81, 6-cyano-7-ethylmercaptoacetate-1,3-dimethyllumazine] | 12.2 |  | 

Reference: patent publication US6946465B2, “Immunosuppressive effects of pteridine derivatives” (4 AZA Bioscience NV, priority 1999, dated 2005)
